{"source": "patent US11419336B2", "about": "“Herbicidal combination” (UPL LTD, priority 2017, dated 2022)", "key": {"Digitaria sanguinalis": {"test_system": "Digitaria sanguinalis", "assay": "Field trial, burndown weed control on grasses", "format": "in vivo", "conditions": "g ai/ha: saflufenacil 140, metribuzin 1150, pendimethalin 500 alone", "protocol": "(§1) Studies were conducted to compare the weed controlling activity of the combination of saflufenacil, a triazine herbicide and pendimethalin. […] Any difference between the observed and “expected” efficacy could be attributed to synergy between the compounds in the control of a broad spectrum of weeds. The expected efficacy of a combination of saflufenacil, a triazine herbicide and an pendimethalin was calculated using the well-established Colby method.\n(§2) In the Colby method, the expected (or predicted) response of a combination of herbicides is calculated by taking the product of the observed response for each individual component of the combination when applied alone divided by 100 and subtracting this value from the sum of the observed response for each component when applied alone. An unexpected enhancement in efficacy of the combination is then determined by comparing the observed response of the combination to the expected (or predicted) response as calculated from the observed response of each Individual component alone. If the observed response of the combination is greater than the expected (or predicted) response, or stated conversely, if the difference between the observed and expected response is greater than zero, then the combination is said to be synergistic or unexpectedly effective. (Colby, S. R., Weeds, 1967(15), p. 20-22) The Colby method requires only a single dose of each herbicide applied alone and the mixture of both doses.\n(§3) The weed control activity of the individual herbicides of the invention and their combinations were evaluated on weeds such as those belonging to Echinochloa colona, Digitaria sanguinalis, Amaranthus viridis, Commelina benghalensis, and Cyperus rotundus. The trial was carried out in Randomized Complete Block (RCB) method. Each trial was replicated four times and conducted under GEP guidelines. Application volumes were varied for each mixture. Such field trials were carried out at various locations so as to generate independent data, the locations were chosen randomly across India. Saflufenacil, metribuzin and pendimethalin were sprayed according to their recommended dosage.\n(§4) The following formula was used to calculate the expected activity of mixtures containing three active ingredients, A, B and C:\n(§5) A=observed efficacy of active ingredient A at the same concentration as used in the mixture.\n(§6) B=observed efficacy of active ingredient B at the same concentration as used in the mixture.\n(§7) C=observed efficacy of active ingredient C at the same concentration as Used in the mixture."}, "Echinochloa colona": {"test_system": "Echinochloa colona", "assay": "Field trial, burndown weed control on grasses", "format": "in vivo", "conditions": "g ai/ha: saflufenacil 140, metribuzin 1150, pendimethalin 500 alone", "protocol": "as §1, §2, §3, §4, §5, §6, §7"}, "Eleucine indica [1]": {"test_system": "Eleucine indica", "assay": "Field trial, burndown weed control on grasses", "format": "in vivo", "conditions": "g ai/ha: saflufenacil 140, metribuzin 1150, pendimethalin 500 alone, mixture 140 + 1150 + 500", "protocol": "as §1, §2, §3, §4, §5, §6, §7"}, "Cyperus rotundus": {"test_system": "Cyperus rotundus", "assay": "Field trial, burndown weed control on sedges", "format": "in vivo", "conditions": "g ai/ha: saflufenacil 140, metribuzin 1150, pendimethalin 500 alone, mixture 112 + 920 + 571", "protocol": "Studies were conducted to compare the weed controlling activity of the combination of saflufenacil, a triazine herbicide and pendimethalin. […] Any difference between the observed and “expected” efficacy could be attributed to synergy between the compounds in the control of a broad spectrum of weeds. The expected efficacy of a combination of saflufenacil, a triazine herbicide and an pendimethalin was calculated using the well-established Colby method. […] An unexpected enhancement in efficacy of the combination is then determined by comparing the observed response of the combination to the expected (or predicted) response as calculated from the observed response of each Individual component alone. If the observed response of the combination is greater than the expected (or predicted) response, or stated conversely, if the difference between the observed and expected response is greater than zero, then the combination is said to be synergistic or unexpectedly effective. (Colby, S. R., Weeds, 1967(15), p. 20-22) The Colby method requires only a single dose of each herbicide applied alone and the mixture of both doses. The weed control activity of the individual herbicides of the invention and their combinations were evaluated on weeds such as those belonging to Echinochloa colona, Digitaria sanguinalis, Amaranthus viridis, Commelina benghalensis, and Cyperus rotundus. The trial was carried out in Randomized Complete Block (RCB) method. Each trial was replicated four times and conducted under GEP guidelines. Application volumes were varied for each mixture. Such field trials were carried out at various locations so as to generate independent data, the locations were chosen randomly across India. Saflufenacil, metribuzin and pendimethalin were sprayed according to their recommended dosage. The following formula was used to calculate the expected activity of mixtures containing three active ingredients, A, B and C: [formula] • Where A=observed efficacy of active ingredient A at the same concentration as used in the mixture. B=observed efficacy of active ingredient B at the same concentration as used in the mixture. C=observed efficacy of active ingredient C at the same concentration as Used in the mixture."}, "Digera sp.": {"test_system": "Digera sp.", "assay": "Field trial, burndown weed control on broadleaf weeds", "format": "in vivo", "conditions": "g ai/ha: saflufenacil 140, metribuzin 1150, pendimethalin 500 alone, mixture 112 + 920 + 571", "protocol": "as §1, §2, §3, §4, §5, §6, §7"}, "Eleucine indica [2]": {"test_system": "Eleucine indica", "assay": "Field trial, burndown weed control on grasses", "format": "in vivo", "conditions": "15 DAA; g ai/ha: saflufenacil 140, metribuzin 1150, pendimethalin 500 alone; mixture 112 + 920 + 571"}, "weeds": {"test_system": "weeds", "conditions": "saflufenacil alone; cited from earlier work"}, "[3]": {"conditions": "15 DAA, mixture 112 + 920 + 571"}, "[4]": {"conditions": "15 DAA, mixture 140 + 1150 + 500"}, "[5]": {"conditions": "Table 3, 30 DAA, mixture 140 + 1150 + 500"}, "[6]": {"conditions": "Table 4, 30 DAA, mixture 140 + 1150 + 500"}}}
{"smiles": "CC(C)N(C)S(=O)(=O)NC(=O)c1cc(-n2c(=O)cc(C(F)(F)F)n(C)c2=O)c(F)cc1Cl", "note": "[Saflufenacil, N′-{2-chloro-4-fluoro-5-[1,2,3,6-tetrahydro-3-methyl-2,6-dioxo-4-(trifluoromethyl)pyrimidin-1-yl]benzoyl}-N-isopropyl-N-methylsulfamide]", "values": [{"measurement": "% Weed control Burn Down Symptoms Generation, Digitaria sanguinalis, Actual", "setting": "Digitaria sanguinalis; [3]", "value": 56.7, "unit": "%"}, {"measurement": "% Weed control Burn Down Symptoms Generation, Digitaria sanguinalis, Actual", "setting": "Digitaria sanguinalis; [4]", "value": 56.7, "unit": "%"}, {"measurement": "% Weed control Burn Down Symptoms Generation, Digitaria sanguinalis, Actual", "setting": "Digitaria sanguinalis; [5]", "value": 13.3, "unit": "%"}, {"measurement": "% Weed control Burn Down Symptoms Generation, Digitaria sanguinalis, Actual", "setting": "Digitaria sanguinalis; [6]", "value": 13.3, "unit": "%"}, {"measurement": "% Weed control Burn Down Symptoms Generation, Echinochloa colona, Actual", "setting": "Echinochloa colona; [3]", "value": 8.3, "unit": "%"}, {"measurement": "% Weed control Burn Down Symptoms Generation, Echinochloa colona, Actual", "setting": "Echinochloa colona; [4]", "value": 8.3, "unit": "%"}, {"measurement": "% Weed control Burn Down Symptoms Generation, Echinochloa colona, Actual", "setting": "Echinochloa colona; [5]", "value": 13, "unit": "%"}, {"measurement": "% Weed control Burn Down Symptoms Generation, Echinochloa colona, Actual", "setting": "Echinochloa colona; [6]", "value": 13, "unit": "%"}, {"measurement": "% Weed control Burn Down Symptoms Generation, Eleucine indica, Actual", "setting": "Eleucine indica [1]; 15 DAA", "value": 13.3, "unit": "%"}, {"measurement": "% Weed control Burn Down Symptoms Generation, Eleucine indica, Actual", "setting": "Eleucine indica [1]; Table 3, 30 DAA", "value": 9.3, "unit": "%"}, {"measurement": "% Weed control Burn Down Symptoms Generation, Eleucine indica, Actual", "setting": "Eleucine indica [1]; Table 4, 30 DAA", "value": 9.3, "unit": "%"}, {"measurement": "% Weed control Burn Down Symptoms Generation, Cyperus rotundus at 15 DAA, Actual", "setting": "Cyperus rotundus", "value": 15, "unit": "%"}, {"measurement": "% Weed control Burn Down Symptoms Generation, Cyperus rotundus at 30 DAA, Actual", "setting": "Cyperus rotundus", "value": 20, "unit": "%"}, {"measurement": "% Weed control Burn Down Symptoms Generation, Digera sp. at 15 DAA, Actual", "setting": "Digera sp.", "value": 69.7, "unit": "%"}, {"measurement": "% Weed control Burn Down Symptoms Generation, Digera sp. at 30 DAA, Actual", "setting": "Digera sp.", "value": 68.3, "unit": "%"}, {"measurement": "% Weed control Burn Down Symptoms Generation, Eleucine indica, Actual", "setting": "Eleucine indica [2]", "value": 13.3, "unit": "%"}, {"measurement": "Efficacy in weed control beyond 30 days after treatment", "setting": "weeds", "value": "reduced efficacy"}]}
{"smiles": "CSc1nnc(C(C)(C)C)c(=O)n1N", "note": "[Metribuzin, 4-amino-6-tert-butyl-4,5-dihydro-3-methylthio-1,2,4-triazin-5-one]", "values": [{"measurement": "% Weed control Burn Down Symptoms Generation, Digitaria sanguinalis, Actual", "setting": "Digitaria sanguinalis; [3]", "value": 13.3, "unit": "%"}, {"measurement": "% Weed control Burn Down Symptoms Generation, Digitaria sanguinalis, Actual", "setting": "Digitaria sanguinalis; [4]", "value": 13.3, "unit": "%"}, {"measurement": "% Weed control Burn Down Symptoms Generation, Digitaria sanguinalis, Actual", "setting": "Digitaria sanguinalis; [5]", "value": 10, "unit": "%"}, {"measurement": "% Weed control Burn Down Symptoms Generation, Digitaria sanguinalis, Actual", "setting": "Digitaria sanguinalis; [6]", "value": 10, "unit": "%"}, {"measurement": "% Weed control Burn Down Symptoms Generation, Echinochloa colona, Actual", "setting": "Echinochloa colona; [3]", "value": 6.7, "unit": "%"}, {"measurement": "% Weed control Burn Down Symptoms Generation, Echinochloa colona, Actual", "setting": "Echinochloa colona; [4]", "value": 6.7, "unit": "%"}, {"measurement": "% Weed control Burn Down Symptoms Generation, Echinochloa colona, Actual", "setting": "Echinochloa colona; [5]", "value": 10, "unit": "%"}, {"measurement": "% Weed control Burn Down Symptoms Generation, Echinochloa colona, Actual", "setting": "Echinochloa colona; [6]", "value": 10, "unit": "%"}, {"measurement": "% Weed control Burn Down Symptoms Generation, Eleucine indica, Actual", "setting": "Eleucine indica [1]; 15 DAA", "value": 8.3, "unit": "%"}, {"measurement": "% Weed control Burn Down Symptoms Generation, Eleucine indica, Actual", "setting": "Eleucine indica [1]; Table 3, 30 DAA", "value": 5.7, "unit": "%"}, {"measurement": "% Weed control Burn Down Symptoms Generation, Eleucine indica, Actual", "setting": "Eleucine indica [1]; Table 4, 30 DAA", "value": 5.7, "unit": "%"}, {"measurement": "% Weed control Burn Down Symptoms Generation, Cyperus rotundus at 15 DAA, Actual", "setting": "Cyperus rotundus", "value": 6.7, "unit": "%"}, {"measurement": "% Weed control Burn Down Symptoms Generation, Cyperus rotundus at 30 DAA, Actual", "setting": "Cyperus rotundus", "value": 8.3, "unit": "%"}, {"measurement": "% Weed control Burn Down Symptoms Generation, Digera sp. at 15 DAA, Actual", "setting": "Digera sp.", "value": 8.3, "unit": "%"}, {"measurement": "% Weed control Burn Down Symptoms Generation, Digera sp. at 30 DAA, Actual", "setting": "Digera sp.", "value": 8.3, "unit": "%"}, {"measurement": "% Weed control Burn Down Symptoms Generation, Eleucine indica, Actual", "setting": "Eleucine indica [2]", "value": 8.3, "unit": "%"}]}
{"smiles": "CCC(CC)Nc1c([N+](=O)[O-])cc(C)c(C)c1[N+](=O)[O-]", "note": "[Pendimethalin, N-(1-ethylpropyl)-2,6-dinitro-3,4-xylidine]", "values": [{"measurement": "% Weed control Burn Down Symptoms Generation, Digitaria sanguinalis, Actual", "setting": "Digitaria sanguinalis; [3]", "value": 56.7, "unit": "%"}, {"measurement": "% Weed control Burn Down Symptoms Generation, Digitaria sanguinalis, Actual", "setting": "Digitaria sanguinalis; [4]", "value": 56.7, "unit": "%"}, {"measurement": "% Weed control Burn Down Symptoms Generation, Digitaria sanguinalis, Actual", "setting": "Digitaria sanguinalis; [5]", "value": 50, "unit": "%"}, {"measurement": "% Weed control Burn Down Symptoms Generation, Digitaria sanguinalis, Actual", "setting": "Digitaria sanguinalis; [6]", "value": 50, "unit": "%"}, {"measurement": "% Weed control Burn Down Symptoms Generation, Echinochloa colona, Actual", "setting": "Echinochloa colona; [3]", "value": 58.3, "unit": "%"}, {"measurement": "% Weed control Burn Down Symptoms Generation, Echinochloa colona, Actual", "setting": "Echinochloa colona; [4]", "value": 58.3, "unit": "%"}, {"measurement": "% Weed control Burn Down Symptoms Generation, Echinochloa colona, Actual", "setting": "Echinochloa colona; [5]", "value": 53.3, "unit": "%"}, {"measurement": "% Weed control Burn Down Symptoms Generation, Echinochloa colona, Actual", "setting": "Echinochloa colona; [6]", "value": 53.3, "unit": "%"}, {"measurement": "% Weed control Burn Down Symptoms Generation, Eleucine indica, Actual", "setting": "Eleucine indica [1]; 15 DAA", "value": 46.7, "unit": "%"}, {"measurement": "% Weed control Burn Down Symptoms Generation, Eleucine indica, Actual", "setting": "Eleucine indica [1]; Table 3, 30 DAA", "value": 45, "unit": "%"}, {"measurement": "% Weed control Burn Down Symptoms Generation, Eleucine indica, Actual", "setting": "Eleucine indica [1]; Table 4, 30 DAA", "value": 45, "unit": "%"}, {"measurement": "% Weed control Burn Down Symptoms Generation, Cyperus rotundus at 15 DAA, Actual", "setting": "Cyperus rotundus", "value": 31.7, "unit": "%"}, {"measurement": "% Weed control Burn Down Symptoms Generation, Cyperus rotundus at 30 DAA, Actual", "setting": "Cyperus rotundus", "value": 25, "unit": "%"}, {"measurement": "% Weed control Burn Down Symptoms Generation, Digera sp. at 15 DAA, Actual", "setting": "Digera sp.", "value": 66.7, "unit": "%"}, {"measurement": "% Weed control Burn Down Symptoms Generation, Digera sp. at 30 DAA, Actual", "setting": "Digera sp.", "value": 7.0, "unit": "%"}, {"measurement": "% Weed control Burn Down Symptoms Generation, Eleucine indica, Actual", "setting": "Eleucine indica [2]", "value": 46.7, "unit": "%"}]}
